Where a name gives a salt, the structure may show the parent alone. Read-outs that look alike come from different tables or passages of the source.
Tests used:
[1] = test system: SUDHL10; experiment: Induction of caspase-3/7 activity (Assay 4), SUDHL10; format: cell-based; settings: SUDHL10 cells
In short: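 Luminescent Caspase-Glo 3/7 read-out after a 3 h, 37 °C compound exposure of the DLBCL line SUDHL10. Values are background-corrected using medium-only wells.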

[2] = test system: SUDHL5; experiment: Antiproliferation assay 7, SUDHL5; format: cell-based; settings: SUDHL5 cells, CellTiter-Glo, read-out: Antiproli SUDHL5 IC50 (median)
In short: (§1)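 Proliferation over 72 h at 37° C was assessed by luminescent cell viability reagent, referenced to a day 0 plate.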

[3] = test system: SUDHL10; experiment: Antiproliferation assay 7, SUDHL10; format: cell-based; settings: SUDHL10 cells, CellTiter-Glo, read-out: Antiproli SUDHL10 IC50 (median)
Procedure: Assessment of the Anti-Proliferative Effect of Compounds in Different Cell Lines
The impact of compounds on the proliferation of different cell lines was assessed using the CellTiter-Glo® Luminescent Cell Viability reagent from Promega (G7573).
In parallel, cells were plated in a reference (day 0) plate for time zero determination.
Rim wells were excluded. The cells were incubated for 72 hours in a humidified incubator at 37° C. The day 0 plate was measured by adding 30 μL/well of CTG solution (CellTiter-Glo® Luminescent Cell Viability reagent, Promega G7573) to time zero wells in the reference plate followed by a 10 minutes incubation and luminescence reading at 0.1 ms. using the PHERAstar FS microplate reader (BMG Labtech).
After 72 hours incubation, the treated plates were measured in the same way as the day 0 plate mentioned above.

[4] = test system: SUDHL5; experiment: Induction of caspase-3/7 activity (Assay 4), SUDHL5; format: cell-based; settings: SUDHL5 cells
In short: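 DLBCL cells treated with compounds for 3 hours at 37° C. Caspase-3/7 activity measured by Caspase-Glo 3/7 luminescence, with medium-only background subtracted.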

[5] = test system: SUDHL5; experiment: Induction of cytotoxicity (Assay 6), SUDHL5
[6] = test system: AMO-1; experiment: Antiproliferation assay 7, AMO-1; format: cell-based; settings: AMO-1 cells, CellTiter-Glo, read-out: Antiproli AMO-1 IC50 median
In short: as §1

[7] = test system: MV-4-11; experiment: Antiproliferation assay 7, MV-4-11; format: cell-based; settings: MV-4-11 cells, CellTiter-Glo, read-out: Antiproli MV-4-11 IC50 median
In short: as §1

[8] = test system: SUDHL10; experiment: Induction of cytotoxicity (Assay 6), SUDHL10
Procedure: Assay 6 Induction of Cytotoxicity Upon Treatment of Cells with Selected Compounds
Therefore, cytotoxicity assays were run in parallel in SUDHL5 and SUDHL10 cells.
The different cell lines were plated in culture medium (RPMI 1640 [GIBCO #22400-089]supplemented with 10% Fetal Bovine Serum) at a density of 3,300 cells in 30 μL/well in a sterile, solid black, flat bottom, polystyrene, TC-treated 384-well microplate (Corning #3571) using Multidrop Combi Reagent Dispenser. As a control, medium without cells was also added to the plate. Cells were incubated in a humidified incubator at 37° C. overnight. […] Rim wells were excluded. The cells were incubated for 5 hours in a humidified incubator at 37° C. After this incubation, 30 μL of CellTiter-Glo® Luminescent Cell Viability reagent (Promega, G7573) was added to each well using the Multidrop Combi Reagent Dispenser, followed by 15 minutes incubation on a shaker at room temperature. Finally, luminescence was read at 0.1 ms, with a gain of 3000 using the PHERAstar FS microplate reader (BMG Labtech).

[9] = target: MCL-1 (Homo sapiens (Human), UniProt Q07820, K194A/K197A/R201A); experiment: Protein-protein interaction assay MCL-1/Noxa BH3 peptide (MCL-1 Assay, TR-FRET); format: binding; settings: read-out: MCL-1 Assay IC50 (median)
Procedure: The dose-dependent inhibition by the compounds described in this invention of the interaction between MCL-1 and the BH3 domain of Noxa (both human) was determined using a steady state binding competition assay with time-resolved fluorescence energy transfer (TR-FRET) readout. […] The MBP-MCL-1 was purchased from Beryllium (Bedford, Mass., USA). The expression and purification of this protein construct has been described elsewhere (DOI:10.1371/journal.pone.0125010). The Noxa BH3-derived peptide can be obtained from e.g. Biosyntan (Berlin, Germany).
For that, 100-fold concentrated DMSO solutions were prepared by serial dilutions (1:3.4) of a 2 mM stock solution in a clear, 384-well microtiter plate (Greiner Bio-One, Frickenhausen, Germany). From there, 50 nl were transferred in a dark test plate (Greiner Bio-One, Frickenhausen, Germany). […] This was followed by a 10-minute incubation step at 22° C. for pre-equilibration of the putative complex between MBP-MCL-1 and the compounds.
The mixture was incubated in the dark for one hour at 22° C. and then overnight at 4° C.
The resulting data (ratio) were normalized, taking 0% inhibition as the mean value of control measurements (usually 32 data points) where all reagents were included. In this case 50 nl DMSO were used instead of compounds. […] IC50 values were determined by regression analysis based on a 4 parameter equation (minimum, maximum, IC50, Hill; Y=Max+(Min−Max)/(1+(X/IC50)^Hill) using the Screener Software (Genedata).

[10] = test system: HMC-1-8; experiment: Antiproliferation assay 7, HMC-1-8; format: cell-based; settings: HMC-1-8 cells, CellTiter-Glo, read-out: Antiproli HMC-1-8 IC50 median
In short: as §1

[11] = Homo sapiens, SU-DHL10, 3 h, Caspase-Glo 3/7, read-out: Caspase SUDHL10 EC50 (median)
[12] = Homo sapiens, SU-DHL-5, 3 h, Caspase-Glo 3/7, read-out: Caspase SUDHL5 EC50 (median)
[13] = Homo sapiens, SU-DHL-5, 5 h, read-out: Cytotox SUDHL5 IC50 (median), SUDHL5 cells, 5 hours, CellTiter-Glo
[14] = Homo sapiens, SU-DHL10, 5 h, read-out: Cytotox SUDHL10 IC50 (median), SUDHL10 cells, 5 hours, CellTiter-Glo
[15] = 3 hours, Caspase-Glo 3/7, read-out: Caspase SUDHL10 EC50 (median)
[16] = 3 hours, Caspase-Glo 3/7, read-out: Caspase SUDHL5 EC50 (median)
[17] = read-out: Cytotox SUDHL5 IC50 (median), SUDHL5 cells, 5 hours, CellTiter-Glo
[18] = read-out: Cytotox SUDHL10 IC50 (median), SUDHL10 cells, 5 hours, CellTiter-Glo

MCL-1, sequence (Q07820 whole entry K194A/K197A/R201A, looked up, the tested form may be a part): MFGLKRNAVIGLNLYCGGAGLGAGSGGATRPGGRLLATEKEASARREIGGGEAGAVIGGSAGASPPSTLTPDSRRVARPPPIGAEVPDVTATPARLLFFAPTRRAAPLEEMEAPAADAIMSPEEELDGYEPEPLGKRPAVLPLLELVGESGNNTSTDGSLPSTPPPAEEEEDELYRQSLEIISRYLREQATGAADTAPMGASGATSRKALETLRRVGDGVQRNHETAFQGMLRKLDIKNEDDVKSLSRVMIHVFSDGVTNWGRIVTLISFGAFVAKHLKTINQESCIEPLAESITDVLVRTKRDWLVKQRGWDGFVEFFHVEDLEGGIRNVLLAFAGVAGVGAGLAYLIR

SMILES	EC50 [1, 11]	IC50 ([2]; Homo sapiens, SU-DHL-5, 72 h)	IC50 ([3]; Homo sapiens, SU-DHL10, 72 h)	EC50 [4, 12]	IC50 ([7]; Homo sapiens, MV4-11, 72 h)	IC50 [9]	EC50 [1, 15]	IC50 ([2]; 72 hours)	IC50 ([3]; 72 hours)	EC50 [4, 16]	IC50 [5, 13]	IC50 ([6]; Homo sapiens, AMO1, 72 h)	IC50 [8, 14]	IC50 ([10]; 72 h)	IC50 [5, 17]	IC50 [8, 18]	IC50 ([6]; 72 hours)	IC50 ([7]; 72 hours)	IC50 ([10]; 72 hours)
Cc1nn(C)c2c1-c1c(Cl)ccc3c(CCCOc4cccc5ccccc45)c(C(=O)O)n(c13)C/C=C\COC2 (racemic) [Example 1, (rac)-(11Z)-4-chloro-1,3-dimethyl-7-[3-(naphthalen-1-yloxy)propyl]-1,10,13,15-tetrahydropyrazolo[4′,3′:9,10][1,6]oxazacycloundecino[8,7,6-hi]indole-8-carboxylic Acid]	5500 nM	5700 nM	5700 nM	2900 nM							2900 nM								
Cc1c2c(nn1C)COCCCCn1c(C(=O)O)c(CCCOc3cccc4cc(F)ccc34)c3ccc(Cl)c-2c31 (racemic) [Example 14, (rac)-4-chloro-7-{3-[(6-fluoronaphthalen-1-yl)oxy]propyl}-2,3-dimethyl-2,10,11,12,13,15-hexahydropyrazolo[4′,3′:9,10][1,6]oxazacycloundecino[8,7,6-hi]indole-8-carboxylic Acid]	410 nM	510 nM	420 nM	250 nM	1230 nM						390 nM	737 nM	610 nM						
Cc1c2c(nn1CCCN1CCN(C)CC1)COCCCCn1c(C(=O)O)c(CCCOc3cccc4ccccc34)c3ccc(Cl)c-2c31 (racemic) [Example 48, (rac)-4-chloro-3-methyl-2-[3-(4-methylpiperazin-1-yl)propyl]-7-{3-[(naphthalen-1-yl)oxy]propyl}-2,10,11,12,13,15-hexahydropyrazolo[4′,3′:9,10][1,6]oxazacycloundecino[8,7,6-hi]indole-8-carboxylic Acid]	590 nM	570 nM		590 nM	918 nM	1.7 nM					590 nM	1490 nM	1000 nM						
Cc1c2c(nn1C)OCCCCCn1c(C(=O)O)c(CCCOc3cccc4cc(F)ccc34)c3ccc(Cl)c-2c31 (single isomer, unassigned; enantiomer 1) [Example 84, 4-chloro-7-{3-[(6-fluoronaphthalen-1-yl)oxy]propyl}-2,3-dimethyl-11,12,13,14-tetrahydro-2H,10H-pyrazolo[3′,4′:2,3][1,6]oxazacycloundecino[4,5,6-hi]indole-8-carboxylic Acid—Enantiomer 1]	1300 nM	1300 nM		1000 nM		1.9 nM					1100 nM	230 nM	1500 nM	12000 nM					
Cc1nn(C)c2c1-c1c(Cl)ccc3c(CCCOc4cccc5ccccc45)c(C(=O)O)n(c13)CCCCOC2 (single isomer, unassigned; enantiomer 2) [Example 4, 4-chloro-1,3-dimethyl-7-[3-(naphthalen-1-yloxy)propyl]-1,10,11,12,13,15-hexahydropyrazolo[4′,3′:9,10][1,6]oxazacycloundecino[8,7,6-hi]indole-8-carboxylic Acid (Enantiomer 2)]							> 33000 nM	13000 nM	12000 nM	> 28000 nM					26000 nM	> 33000 nM			
Cc1c2c(nn1C)CN(C)CCCCn1c(C(=O)O)c(CCCOc3cccc4cc(F)ccc34)c3ccc(Cl)c-2c31 (single isomer, unassigned; enantiomer 2) [Example 32, (−)-4-chloro-7-{3-[(6-fluoronaphthalen-1-yl)oxy]propyl}-2,3,14-trimethyl-10,11,12,13,14,15-hexahydro-2H-pyrazolo[3′,4′:8,9][1,6]diazacycloundecino[10,11,1-hi]indole-8-carboxylic acid-N-ethylethanamine Salt (Enantiomer 2)]						26 nM	25000 nM	6000 nM		11000 nM					9300 nM	14000 nM	19600 nM	14000 nM	

Continued, in another order:

EC50 [1, 11]	IC50 ([2]; Homo sapiens, SU-DHL-5, 72 h)	IC50 ([3]; Homo sapiens, SU-DHL10, 72 h)	EC50 [4, 12]	IC50 ([7]; Homo sapiens, MV4-11, 72 h)	IC50 [9]	EC50 [1, 15]	IC50 ([2]; 72 hours)	IC50 ([3]; 72 hours)	EC50 [4, 16]	SMILES	IC50 [5, 13]	IC50 ([6]; Homo sapiens, AMO1, 72 h)	IC50 [8, 14]	IC50 ([10]; 72 h)	IC50 [5, 17]	IC50 [8, 18]	IC50 ([6]; 72 hours)	IC50 ([7]; 72 hours)	IC50 ([10]; 72 hours)
610 nM	330 nM	280 nM	270 nM	701 nM						CCc1c2c(nn1C)CN(C)CCCCn1c(C(=O)O)c(CCCOc3cccc4cc(F)ccc34)c3ccc(Cl)c-2c31 (racemic) [Example 5, (rac)-4-chloro-3-ethyl-7-{3-[(6-fluoronaphthalen-1-yl)oxy]propyl}-2,14-dimethyl-10,11,12,13,14,15-hexahydro-2H-pyrazolo[3′,4′:8,9][1,6]diazacycloundecino[10,11,1-hi]indole-8-carboxylic Acid]	290 nM	611 nM	530 nM						
600 nM	410 nM		400 nM		2 nM					CCc1c2c(nn1C)N(CCC1CCOCC1)CCCCCn1c(C(=O)O)c(CCCOc3cccc4cc(F)ccc34)c3ccc(Cl)c-2c31 (racemic) [Example 80, (rac)-4-chloro-3-ethyl-7-{3-[(6-fluoronaphthalen-1-yl)oxy]propyl}-2-methyl-15-[2-(oxan-4-yl)ethyl]-10,11,12,13,14,15-hexahydro-2H-pyrazolo[4′,3′:4,5][1,6]diazacycloundecino[3,2,1-hi]indole-8-carboxylic Acid]	500 nM	270 nM	530 nM	4000 nM					
					15 nM	12000 nM	6700 nM		13000 nM	Cc1c2c(nn1CCCN1CCN(C)CC1)COCCCCn1c(C(=O)O)c(CCCOc3cccc4ccccc34)c3ccc(Cl)c-2c31 (single isomer, unassigned; enantiomer 2) [Example 50, (−)-4-chloro-3-methyl-2-[3-(4-methylpiperazin-1-yl)propyl]-7-{3-[(naphthalen-1-yl)oxy]propyl}-2,10,11,12,13,15-hexahydropyrazolo[4′,3′:9,10][1,6]oxazacycloundecino[8,7,6-hi]indole-8-carboxylic Acid (Enantiomer 2)]					8400 nM	8600 nM	13300 nM		12400 nM

— patent publication US11447504B2, “Macrocyclic chlorine substituted indole derivatives” (Bayer Aktiengesellschaft, priority 2017, dated 2022)
